Laboratory results from patent US20240228487A1, “FUSED HETEROCYCLIC COMPOUND AND APPLICATION THEREOF, PHARMACEUTICAL COMPOSITIONS CONTAINING SAME AND APPLICATION THEREOF” (ZHEJIANG UNIVERSITY, priority 2021, published 2024).

How the values were obtained:
[1] = tested on: dopaminergic neurons differentiated from iPSC derived from disseminated PD patients; experiment: cell viability (cell titer glo) of iPSC differentiated dopaminergic neurons; assay type: cell-based, human; details: II-23 0.6 μM, ACA 0.5 μM, from day 15 of culture; CTG kit
Experimental: Using normal and disseminated PD patient-derived induced pluripotent stem cells (iPSC), performing drug interventions using the TRPM2 inhibitors ACA and II-23 after they were induced and differentiated into mature dopaminergic neurons, the drug treating method is as follows: • a. Calculating the materials for the experiment, and starting preparing when the dopaminergic neurons are differentiated to the 8th day. The petri dishes should be treated with 33 μg/mL PDL overnight and washed with sterilized water. After drying, 2 μg/mL of laminin was added and incubated overnight. Both PDL and laminin can be recycled for reuse. • b. Digesting and collecting the differentiated cells with Accutase, and counting with a cell counting plate, and then diluting to 500,000/mL with maturation medium (Y-27632 should be added). Fluorescence confocal imaging was performed using a confocal dish inoculated with 2 mL/dish, and cell viability assays were performed using a 96-well plate inoculated with 100 μL/well. Taking this time point as the 10th day, changing to Y-27632-free medium on the 11th day, and changing the medium every two days. • c. When the cells were cultured to the 15th day, treating the drugs to a final concentration with the medium, the working concentration of ACA is 0.5 μM, and the working concentration of II-23 is 0.6 μM, and the drug-containing medium was changed every four days. […]

[2] = tested on: dopaminergic neurons differentiated from iPSC derived from disseminated PD patients; experiment: mitochondrial fusion morphology (Mitotracker, Girk2 labeling) of iPSC differentiated dopaminergic neurons; assay type: cell-based, human; details: II-23 0.6 μM, ACA 0.5 μM; Mitotracker staining, Girk2-positive neurons
Experimental: Using normal and disseminated PD patient-derived induced pluripotent stem cells (iPSC), performing drug interventions using the TRPM2 inhibitors ACA and II-23 after they were induced and differentiated into mature dopaminergic neurons, the drug treating method is as follows: • a. Calculating the materials for the experiment, and starting preparing when the dopaminergic neurons are differentiated to the 8th day. The petri dishes should be treated with 33 μg/mL PDL overnight and washed with sterilized water. After drying, 2 μg/mL of laminin was added and incubated overnight. Both PDL and laminin can be recycled for reuse. • b. […] Fluorescence confocal imaging was performed using a confocal dish inoculated with 2 mL/dish, and cell viability assays were performed using a 96-well plate inoculated with 100 μL/well. […]
Positive dopamine neurons were labeled with a dopaminergic neuron marker molecule Girk2 antibody susceptible for SNc, and cellular mitochondria were labeled with the mitochondrial dye mitotracker as in FIG. 15. […] Finally, performing the fluorescence imaging: removing the secondary antibody, and washing three times with 1×PBS, adding 50% Glycerol for fluorescence protection, and then imaging with a Zeiss LSM880 laser confocal microscope, as shown in FIG. 15.

[3] = tested on: WT (TRPM2+/+) and TRPM2 knockout (TRPM2-/-) mice, tMCAO; experiment: tMCAO in WT and TRPM2 knockout mice given autophagy inhibitor; assay type: in vivo, mouse; details: FIG. 12
From the text: After isoflurane inhalation gas anesthesia of 22-25 g male WT mice (TRPM2+/+) and TRPM2 knockout (TRPM2−/−) mice, the fiber-optic probes of laser Doppler flowmeter were fixed to the skull of the animals with glue and used to monitor the cerebral blood flow of the middle cerebral artery (MCA) supplying cortex.
The mice were fixed in the supine position, and the middle of the neck was dehaired and routinely sterilized with 75% alcohol. […] Only animals whose blood flow values decreased to 20% of the basic value were selected according to the blood flow data monitored by the flowmeter. […]
The mice were decapitated 24 h after ischemia-reperfusion, the coronal planes of the brains were cut into brain slices of about 2 mm thickness uniformly. […] The processed brain slices were photographed using a macro camera, and Image J image analysis software was used to calculate and count the cerebral infarct volume, and the measured results are shown in FIG. 11. […]

Structure (SMILES): CCCCCc1ccc(/C=C/C(=O)Nc2ccccc2C(=O)O)cc1 [ACA, reference compound]
- cell viability of differentiated dopaminergic neurons derived from disseminated PD patients [1]: restored
- excessive mitochondrial fusion in dopaminergic neurons derived from PD patients [2]: reversed

Structure (SMILES): Cn1cnc(N)c2ncnc1-2 [Compound 3-MA]
- cerebroprotective effect of reduced TRPM2 levels during cerebral ischemia reperfusion [3]: reversed
